# Test results as given in the supplement of paper PMC8149375.
# Experiments:
# Details in all cases: treatment: drug + dasatinib (fixed dose, not stated); 5 days
# 769-P [1] = test: GI50 of drug in presence of dasatinib; higher = less potent
# Protocol: (§1)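 Primary HTS combination arm: 8 RCC cell lines treated with 8 doses (up to 10 uM) of each library drug plus a fixed dose of dasatinib (dose not stated) for 5 days; viability read by CellTiter-Glo and normalised to DMSO. GI50 was fitted with XLfit, AUC is the area under the dose-response curve, and minimum viability is the lowest fraction of DMSO viability across doses.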
# 786-O [2] = test: as above
# Protocol: as §1
# A498 [3] = test: as above
# Protocol: as §1
# ACHN [4] = test: as above
# Protocol: as §1
# CAKI-1 [5] = test: as above
# Protocol: as §1
# SN12C [6] = test: as above
# Protocol: as §1
# TK-10 [7] = test: as above
# Protocol: as §1
# UO-31 [8] = test: as above
# Protocol: as §1
# 769-P [9] = test: minimum viability across doses, drug + dasatinib, relative to DMSO (fraction); higher = less growth inhibition
# Protocol: as §1
# 786-O [10] = test: as above
# Protocol: as §1
# A498 [11] = test: as above
# Protocol: as §1
# ACHN [12] = test: as above
# Protocol: as §1
# CAKI-1 [13] = test: as above
# Protocol: as §1
# SN12C [14] = test: as above
# Protocol: as §1
# TK-10 [15] = test: as above
# Protocol: as §1
# UO-31 [16] = test: as above
# Protocol: as §1
# 769-P [17] = test: AUC of dose-response viability curve, drug + dasatinib, normalised to DMSO (arbitrary (AUC of normalised viability)); higher = less growth inhibition
# Protocol: as §1
# 786-O [18] = test: as above
# Protocol: as §1
# A498 [19] = test: as above
# Protocol: as §1
# ACHN [20] = test: as above
# Protocol: as §1
# CAKI-1 [21] = test: as above
# Protocol: as §1
# SN12C [22] = test: as above
# Protocol: as §1
# TK-10 [23] = test: as above
# Protocol: as §1
# UO-31 [24] = test: as above
# Protocol: as §1
SMILES,GI50 of drug (786-O [2]) [µM],GI50 of drug (ACHN [4]) [nM],GI50 of drug (769-P [1]) [µM],GI50 of drug (A498 [3]) [µM],GI50 of drug (CAKI-1 [5]) [µM],GI50 of drug (SN12C [6]) [µM],GI50 of drug (TK-10 [7]) [nM],GI50 of drug (UO-31 [8]) [µM],minimum viability across doses (769-P [9]),minimum viability across doses (786-O [10]),minimum viability across doses (A498 [11]),minimum viability across doses (ACHN [12]),minimum viability across doses (CAKI-1 [13]),minimum viability across doses (SN12C [14]),minimum viability across doses (TK-10 [15]),minimum viability across doses (UO-31 [16]),AUC of dose-response viability curve (769-P [17]),AUC of dose-response viability curve (786-O [18]),AUC of dose-response viability curve (A498 [19]),AUC of dose-response viability curve (ACHN [20]),AUC of dose-response viability curve (CAKI-1 [21]),AUC of dose-response viability curve (SN12C [22]),AUC of dose-response viability curve (TK-10 [23]),AUC of dose-response viability curve (UO-31 [24])
C[C@@H]1COC(Nc2ccc3ncnc(Nc4ccc(OCc5nccs5)c(Cl)c4)c3c2)=N1 + Cc1nc(Nc2ncc(C(=O)Nc3c(C)cccc3Cl)s2)cc(N2CCN(CCO)CC2)n1 [dasatinib],> 10,96.4,0.267,> 10,3.55,> 10,614,> 10,0.18,0.49,0.988,0.286,0.318,0.638,0.318,0.679,1.87,2.05,4.08,1.62,2.16,2.36,2.03,3.53
O=C1NC(=O)/C(=C/c2ccc3c(c2)OC(F)(F)O3)S1 + Cc1nc(Nc2ncc(C(=O)Nc3c(C)cccc3Cl)s2)cc(N2CCN(CCO)CC2)n1 [dasatinib],> 10,> 10000,> 10,> 10,> 10,> 10,> 10000,> 10,0.679,0.543,0.925,0.538,0.634,0.645,0.655,1.28,2.51,2.32,3.79,2.11,2.42,2.34,2.52,4.77
NC1(Cc2ccc(Cl)cc2)CCN(c2ncnc3[nH]ccc23)CC1 + Cc1nc(Nc2ncc(C(=O)Nc3c(C)cccc3Cl)s2)cc(N2CCN(CCO)CC2)n1 [dasatinib],0.353,1480,5.14,8.07,2.55,4.47,2130,3.23,0.323,0.00351,0.401,0.165,0.202,0.356,0.207,0.0115,2.5,1.97,3.16,2.04,2.19,2.36,2.38,3.84

# Second part, led by results:
GI50 of drug (786-O [2]) [µM],GI50 of drug (ACHN [4]) [nM],SMILES,GI50 of drug (769-P [1]) [µM],GI50 of drug (A498 [3]) [µM],GI50 of drug (CAKI-1 [5]) [µM],GI50 of drug (SN12C [6]) [µM],GI50 of drug (TK-10 [7]) [nM],GI50 of drug (UO-31 [8]) [µM],minimum viability across doses (769-P [9]),minimum viability across doses (786-O [10]),minimum viability across doses (A498 [11]),minimum viability across doses (ACHN [12]),minimum viability across doses (CAKI-1 [13]),minimum viability across doses (SN12C [14]),minimum viability across doses (TK-10 [15]),minimum viability across doses (UO-31 [16]),AUC of dose-response viability curve (769-P [17]),AUC of dose-response viability curve (786-O [18]),AUC of dose-response viability curve (A498 [19]),AUC of dose-response viability curve (ACHN [20]),AUC of dose-response viability curve (CAKI-1 [21]),AUC of dose-response viability curve (SN12C [22]),AUC of dose-response viability curve (TK-10 [23]),AUC of dose-response viability curve (UO-31 [24])
> 10,1050,Cc1cc2c(F)c(Oc3ncnn4cc(OC[C@@H](C)OC(=O)[C@H](C)N)c(C)c34)ccc2[nH]1 + Cc1nc(Nc2ncc(C(=O)Nc3c(C)cccc3Cl)s2)cc(N2CCN(CCO)CC2)n1 [dasatinib],> 10,> 10,7.6,> 10,> 10000,9.86,0.617,0.504,0.733,0.316,0.431,0.605,0.674,0.457,2.41,2.48,3.16,1.89,2.59,2.47,2.69,3.27
3.74,631,CN(C)Cc1cccc(N/C(=C2\C(=O)Nc3cc(C(=O)N(C)C)ccc32)c2ccccc2)c1 + Cc1nc(Nc2ncc(C(=O)Nc3c(C)cccc3Cl)s2)cc(N2CCN(CCO)CC2)n1 [dasatinib],> 10,9.88,1.12,2.48,5620,7.14,0.561,0.348,0.473,0.0657,0.0645,0.229,0.386,0.0229,2.43,2.19,3.5,1.61,2.09,2.35,2.49,3.62
0.656,85.7,Cc1n[nH]c2ccc(-c3cncc(OC[C@@H](N)Cc4ccccc4)c3)cc12 + Cc1nc(Nc2ncc(C(=O)Nc3c(C)cccc3Cl)s2)cc(N2CCN(CCO)CC2)n1 [dasatinib],1.05,1.26,0.225,1.53,1130,0.984,0.00989,0.0069,0.012,0.00362,0.0702,0.0087,0.166,0.00975,1.98,1.77,2.92,1.42,1.57,1.9,2.16,1.97
7.6,5540,Nc1nccc(Oc2ccc(NC(=O)c3c[nH]cc(-c4ccc(F)cc4)c3=O)cc2F)c1Cl + Cc1nc(Nc2ncc(C(=O)Nc3c(C)cccc3Cl)s2)cc(N2CCN(CCO)CC2)n1 [dasatinib],5.58,> 10,4.03,> 10,> 10000,> 10,0.349,0.44,0.617,0.395,0.323,0.559,0.56,0.717,2.29,2.28,3.3,2.2,2.03,2.34,2.52,4.48
